Measurements as given in ChEMBL document CHEMBL5500399, “Design, Synthesis, and Biological Evaluation of 1,2,4-Oxadiazole Derivatives Containing an Aryl Carboxylic Acid Moiety as Potent Sarbecovirus Papain-like Protease Inhibitors” (J Med Chem, 2024).
Active and inactive are the calls of the source. The calls are words filed in the database; no cut-off is given here.

Assays:
[1] = MRT(0 to t) in BALB/c mouse at 50 mg/kg, po measured upto 48 hrs by LC-MS/MS analysis; format: ADME, organism-based; details: in vivo
[2] = Half life in BALB/c mouse at 50 mg/kg, po measured upto 48 hrs by LC-MS/MS analysis; format: ADME, organism-based; details: in vivo
[3] = Metabolic stability in human liver microsomes assessed as half life at 1 uM preincubated for 5 mins followed by NADPH addition and measured after 30 mins by LC-MS/MS analysis; format: ADME, Microsome; details: time 35 min
[4] = MRT(0 to t) in BALB/c mouse at 5 mg/kg, iv measured upto 48 hrs by LC-MS/MS analysis; format: ADME, organism-based; details: in vivo
[5] = Metabolic stability in CD-1 mouse liver microsomes assessed as compound remaining at 1 uM preincubated for 5 mins followed by NADPH addition and measured after 30 mins by LC-MS/MS analysis; format: ADME, Microsome; details: read-out: Stability
[6] = Cmax in BALB/c mouse at 50 mg/kg, po measured upto 48 hrs by LC-MS/MS analysis; format: ADME, organism-based; details: in vivo
[7] = Cytotoxicity against african green monkey Vero E6 cells incubated for 48 hrs; format: toxicity, cell-based, Vero C1008; details: chlorocebus sabaeus
[8] = AUC(0 to infinity) in BALB/c mouse at 50 mg/kg, po measured upto 48 hrs by LC-MS/MS analysis; format: ADME, organism-based; details: in vivo
[9] = MRT(0 to infinity) in BALB/c mouse at 5 mg/kg, iv measured upto 48 hrs by LC-MS/MS analysis; format: ADME, organism-based; details: in vivo
[10] = AUC(0 to t) in BALB/c mouse at 50 mg/kg, po measured upto 48 hrs by LC-MS/MS analysis; format: ADME, organism-based; details: in vivo
[11] = Clearance in BALB/c mouse at 5 mg/kg, iv measured upto 48 hrs by LC-MS/MS analysis; format: ADME, organism-based; details: in vivo
[12] = Cmax in BALB/c mouse at 5 mg/kg, iv measured upto 48 hrs by LC-MS/MS analysis; format: ADME, organism-based; details: in vivo
[13] = Metabolic stability in human liver microsomes assessed as compound remaining at 1 uM preincubated for 5 mins followed by NADPH addition and measured after 30 mins by LC-MS/MS analysis; format: ADME, Microsome; details: read-out: Stability
[14] = Tmax in BALB/c mouse at 50 mg/kg, po measured upto 48 hrs by LC-MS/MS analysis; format: ADME, organism-based; details: in vivo
[15] = Metabolic stability in CD-1 mouse liver microsomes assessed as half life at 1 uM preincubated for 5 mins followed by NADPH addition and measured after 30 mins by LC-MS/MS analysis; format: ADME, Microsome; details: time 35 min
[16] = test system: Severe acute respiratory syndrome-related coronavirus; assay: Inhibition of SARS-CoV PLpro using Z-RLRGG-AMC as substrate preincubated for 10 mins followed by substrate addition and measured after 20 sec shaking for 30 mins by time-resolved fluorescence assay
[17] = Tmax in BALB/c mouse at 5 mg/kg, iv measured upto 48 hrs by LC-MS/MS analysis; format: ADME, organism-based; details: in vivo
[18] = target: Replicase polyprotein 1ab (Middle East respiratory syndrome-related coronavirus (isolate UnitedKingdom/H123990006/2012) (Betacoronavirus England 1) (Humancoronavirus EMC)) (UniProt K9N7C7); assay: Inhibition of MERS-CoV PLpro using Z-RLRGG-AMC as substrate preincubated for 10 mins followed by substrate addition and measured after 20 sec shaking for 30 mins by time-resolved fluorescence assay; details: time 40.3 min
[19] = target: Replicase polyprotein 1ab (Severe acute respiratory syndrome coronavirus 2) (UniProt P0DTD1); assay: Inhibition of RLRGG binding to SARS-CoV2 PLpro
[20] = Oral bioavailability in BALB/c mouse at 50 mg/kg measured upto 48 hrs by LC-MS/MS analysis; format: ADME, organism-based; details: in vivo
[21] = AUC(0 to t) in BALB/c mouse at 5 mg/kg, iv measured upto 48 hrs by LC-MS/MS analysis; format: ADME, organism-based; details: in vivo
[22] = target: T1, Replicase polyprotein 1ab (Severe acute respiratory syndrome coronavirus 2, UniProt P0DTD1); assay: Inhibition of SARS-CoV2 PLpro using Z-RLRGG-AMC as substrate preincubated for 10 mins followed by substrate addition and measured after 20 sec shaking for 30 mins by time-resolved fluorescence assay
[23] = target: Replicase polyprotein 1ab (Severe acute respiratory syndrome coronavirus 2) (UniProt P0DTD1); assay: Inhibition of SARS-CoV2 PLpro cleavage activity using 2Ub-K48 as substrate incubated overnight by SYPRO Ruby staining based SDS-PAGE analysis
[24] = Half life in BALB/c mouse at 5 mg/kg, iv measured upto 48 hrs by LC-MS/MS analysis; format: ADME, organism-based; details: in vivo
[25] = MRT(0 to infinity) in BALB/c mouse at 50 mg/kg, po measured upto 48 hrs by LC-MS/MS analysis; format: ADME, organism-based; details: in vivo
[26] = target: T1, Replicase polyprotein 1ab; assay: Binding affinity to SARS-CoV2 PLpro by biolayer interferometry analysis
[27] = AUC(0 to infinity) in BALB/c mouse at 5 mg/kg, iv measured upto 48 hrs by LC-MS/MS analysis; format: ADME, organism-based; details: in vivo
[28] = Metabolic stability in human hepatocytes assessed as intrinsic clearance per million cells at 1 uM measured upto 30 mins; format: ADME, cell-based, Hepatocyte; details: read-out: CLH
[29] = Metabolic stability in human liver microsomes assessed as half life; format: ADME, Microsome
[30] = Metabolic stability in mouse hepatocytes assessed as intrinsic clearance per million cells at 1 uM measured upto 30 mins; format: ADME, cell-based, Hepatocyte; details: read-out: CLH
[31] = Metabolic stability in mouse hepatocytes assessed as half life at 1 uM measured upto 30 mins; format: ADME, cell-based, Hepatocyte
[32] = Metabolic stability in mouse hepatocytes assessed as compound remaining at 1 uM measured after 30 mins; format: ADME, cell-based, Hepatocyte; details: read-out: Stability
[33] = Metabolic stability in human liver microsomes assessed as intrinsic clearance; format: ADME, Microsome; details: read-out: CLH
[34] = Metabolic stability in human hepatocytes assessed as half life at 1 uM measured upto 30 mins; format: ADME, cell-based, Hepatocyte
[35] = Metabolic stability in human hepatocytes assessed as compound remaining at 1 uM measured after 30 mins; format: ADME, cell-based, Hepatocyte; details: read-out: Stability
[36] = target: Replicase polyprotein 1ab (Severe acute respiratory syndrome coronavirus 2) (UniProt P0DTD1); assay: Binding affinity to SARS-CoV2 PLpro assessed as stabilization by measuring increase melting temperature by thermal shift assay

| SMILES | MRT last at 48 h [1] | half-life [2] | half-life at 1 µM [3] | MRT last at 48 h [4] | remaining at 0.5 h, 1 µM [5] | Cmax [6] | CC50 at 48 h [7] | AUC(0-inf) [8] | MRT inf [9] | AUC(0-t) at 48 h [10] | clearance [11] | Cmax [12] | remaining at 0.5 h, 1 µM [13] | Tmax [14] | half-life at 1 µM [15] | inhibition [16] | Tmax [17] | inhibition [18] | inhibition [19] | bioavailability [20] | further results |
| --- | --- | --- | --- | --- | --- | --- | --- | --- | --- | --- | --- | --- | --- | --- | --- | --- | --- | --- | --- | --- | --- |
| Cc1ccc(-c2noc(C(C)c3ccc(-c4ccccc4)c(F)c3)n2)cc1NCc1ccc(C(=O)O)s1 (racemic) | 2.19 h | 2.53 h | > 1.55 h | 2.74 h | 99.1% | 10.2 µg/mL | 124 µM | 24.4 µg·h/mL | 2.96 h | 24.3 µg·h/mL | 0.808 L/h/kg | 10.6 µg/mL | 101% | 1.25 h | > 1.55 h | Active | 0.05 h | Active | Active | 39.1% | AUC(0-t) at 48 h [21]: 6.21 µg·h/mL; IC50 [22]: 1 µM; inhibition [23]: Active; half-life [24]: 4.2 h; MRT inf [25]: 2.72 h; Kd [26]: 13.6 µM; AUC(0-inf) [27]: 6.26 µg·h/mL |
| Cc1ccc(N)cc1C(=O)N[C@H](C)c1cccc2ccccc12 |  |  |  |  |  |  | 253 µM |  |  |  |  |  |  |  |  |  |  |  |  |  | hepatocyte CLint at 1 µM [28]: 15.4 µL/min/1e6 cells; half-life [29]: 0.44 h; hepatocyte CLint at 1 µM [30]: 91.5 µL/min/1e6 cells; half-life at 1 µM [31]: 7.6 min; remaining at 0.5 h, 1 µM [32]: 6.4%; CLint scaled [33]: 1.62 L/h/kg; half-life at 1 µM [34]: 0.75 h; remaining at 0.5 h, 1 µM [35]: 63% |
| CC(c1nc(-c2ccc(-c3ccc(C(=O)O)s3)cc2)no1)c1cccc2ccccc12 (centres undefined) | 8.05 h | 6.5 h | > 1.55 h | 5.04 h | 101% | 3.67 µg/mL | 170 µM | 17.5 µg·h/mL | 5.12 h | 17.4 µg·h/mL | 0.141 L/h/kg | 14.2 µg/mL | 82.1% | 0.88 h | > 1.55 h | Active | 0.17 h | Active | Active | 4.8% | Activity [36]: Active; AUC(0-t) at 48 h [21]: 36.3 µg·h/mL; IC50 [22]: 1.8 µM; inhibition [23]: Active; half-life [24]: 5.8 h; MRT inf [25]: 8.29 h; Kd [26]: 13.6 µM; AUC(0-inf) [27]: 36.3 µg·h/mL |
